Reference: patent US9409952B2, “Peptide-compound cyclization method” (Chugai Seiyaku Kabushiki Kaisha, priority 2011, dated 2016)
Like-named read-outs stand apart in the source and are kept apart here. Positions of bridges follow the written chain, without caps; N, C: chain ends. Non-standard residues stand in square brackets, D forms with d. Residues, ends and D or L forms follow the SMILES beside them. *: point of attachment. NMePhe(3-Cl) = CN[C@@H](Cc1cccc(Cl)c1)C(=O)O; NMeF = CN[C@@H](Cc1ccccc1)C(=O)O; NMeI = CC[C@H](C)[C@H](NC)C(=O)O; NMeL = CN[C@@H](CC(C)C)C(=O)O; NMeV = CN[C@H](C(=O)O)C(C)C; NMeA = CN[C@@H](C)C(=O)O; Piperidide = C1CCN(*)CC1; dNMeA = CN[C@H](C)C(=O)O; β3hA = C[C@H](N)CC(=O)O; Sar = CNCC(=O)O

Key:
[1] = PAMPA (parallel artificial membrane permeability assay); format: in vitro ADME; conditions: PAMPA
Summary of the method: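 Artificial membrane was 10% (w/v) egg lecithin plus 0.5% (w/v) cholesterol in dodecane on a PVDF filter. A 10 mM DMSO stock was added at 0.5% (v/v) to donor buffer (50 mM MOPSO, pH 6.5, 5.0% glycocholic acid). After 18 h at 37 °C, LC/MS or LC/UV gave donor and acceptor levels for Pe.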

[2] = Metabolic stability in human hepatic microsome; format: in vitro ADME; conditions: microsomes
[3] = membrane permeation rate (Pe), 50 mM MOPSO buffer pH 6.5 with 5.0% glycocholic acid, 37° C., 18 hours, read-out: iPAMPA Pe
[4] = pH 7.4, human hepatic microsome, NADPH(+), read-out: CL NADPH(+)

Structure (SMILES)	Papp at 18 hours, 50 µM [1, 3]	microsomal CLint at 1 uM [2, 4]	Papp at 18 hours, 50 µM ([1]; pH 6.5)	microsomal CLint at 1 uM ([2]; human, pH 7.4, CL NADPH(+))
CC[C@H](C)[C@@H]1NC(=O)[C@@H](C)N(C)C(=O)C[C@@H](C(=O)N(C)[C@@H](Cc2ccccc2)C(=O)N[C@@H](C)C(=O)N2CCCCC2)NC(=O)[C@H](Cc2ccccc2)N(C)C(=O)CN(C)C(=O)[C@H]([C@@H](C)O)NC(=O)[C@H](C)N(C)C(=O)[C@H](C(C)C)N(C)C(=O)[C@H](Cc2ccccc2)NC(=O)[C@H](CC(C)C)N(C)C(=O)[C@H](CC(C)C)N(C)C1=O [DP-183] ([dNMeA]I[NMeL][NMeL]F[NMeV][NMeA]T[Sar][NMeF]D[NMeF]A-Piperidide; lactam N-11)	29 ×10⁻⁶ cm/s	25 µL/min/mg		
CC[C@H](C)[C@H]1C(=O)N[C@H](C(=O)N2CCCCC2)CC(=O)N[C@H](C(C)C)C(=O)N[C@@H](CC(C)C)C(=O)N(C)[C@@H](Cc2ccccc2)C(=O)N[C@@H]([C@@H](C)O)C(=O)N(C)[C@@H](C)C(=O)N[C@@H](C(C)C)C(=O)N[C@@H](Cc2ccccc2)C(=O)N(C)[C@@H](CC(C)C)C(=O)N[C@@H](CC(C)C)C(=O)NCC(=O)N1C [DP-216] ([dV]L[NMeF]T[NMeA]VF[NMeL]LG[NMeI]D-Piperidide; lactam N-12)	4.5 ×10⁻⁶ cm/s	43 µL/min/mg		
CC[C@H](C)[C@@H]1NC(=O)[C@H](CC(C)C)N(C)C(=O)[C@H](C(C)C)N(C)C(=O)[C@H](C)NC(=O)[C@H](C)N(C)C(=O)[C@H](Cc2ccccc2)NC(=O)[C@H]([C@@H](C)O)NC(=O)[C@H](CC(C)C)N(C)C(=O)[C@H](CC(C)C)N(C)C(=O)[C@H](C)N(C)C(=O)C[C@H](C)NC1=O [DP-770] (cyclo(A[NMeV][NMeL]I[β3hA][NMeA][NMeL][NMeL]TF[NMeA]))			33 ×10⁻⁶ cm/s	95 µL/min/mg
CC(C)C[C@H]1C(=O)N(C)[C@@H](CC(C)C)C(=O)N[C@H](C(=O)N(C)[C@@H](Cc2ccccc2)C(=O)N[C@@H](C)C(=O)N2CCCCC2)CC(=O)N(C)[C@@H](C)C(=O)N[C@@H](C(C)C)C(=O)N(C)[C@@H](Cc2ccccc2)C(=O)N(C)CC(=O)N[C@@H]([C@@H](C)O)C(=O)N(C)[C@@H](C)C(=O)N1C [DP-310] ([NMeA]V[NMeF][Sar]T[NMeA][NMeL][NMeL]D[NMeF]A-Piperidide; lactam N-9)			35 ×10⁻⁶ cm/s	143 µL/min/mg
CC[C@H](C)[C@@H]1NC(=O)[C@H](CC(C)C)N(C)C(=O)[C@H](Cc2cccc(Cl)c2)N(C)C(=O)[C@@H](C(C)C)NC(=O)C[C@H](C)NC(=O)[C@H](CC(C)C)N(C)C(=O)[C@H](C)N(C)C(=O)[C@H]([C@@H](C)O)NC(=O)[C@H](Cc2cccc(Cl)c2)N(C)C(=O)[C@H](C)N(C)C1=O [DP-812] (cyclo(I[NMeA][NMePhe(3-Cl)]T[NMeA][NMeL][β3hA][dV][NMePhe(3-Cl)][NMeL]))	34 ×10⁻⁶ cm/s	222 µL/min/mg		
CC(C)C[C@@H]1NC(=O)[C@H](CC(C)C)N(C)C(=O)[C@H]([C@@H](C)O)NC(=O)[C@H](Cc2ccccc2)N(C)C(=O)C[C@@H](C(=O)N2CCCCC2)NC(=O)[C@H](CC(C)C)N(C)C(=O)[C@H](Cc2c[nH]cn2)NC(=O)[C@H](Cc2ccccc2)N(C)C(=O)[C@H](Cc2ccccc2)N(C)C1=O [DP-905] ([NMeF]T[NMeL]L[NMeF][NMeF]H[NMeL]D-Piperidide; lactam N-9)	0.6 ×10⁻⁶ cm/s	73 µL/min/mg		
CC(C)C[C@H]1C(=O)N(C)[C@@H](Cc2ccccc2)C(=O)N(C)[C@@H](C)C(=O)N[C@@H](Cc2ccccc2)C(=O)N[C@H](C(=O)N(C)[C@@H](Cc2ccccc2)C(=O)N[C@@H](C)C(=O)N2CCCCC2)CC(=O)N(C)CC(=O)N[C@@H]([C@@H](C)O)C(=O)N(C)CC(=O)N[C@@H](C(C)C)C(=O)N1C [DP-316] ([Sar]T[Sar]V[NMeL][NMeF][NMeA]FD[NMeF]A-Piperidide; lactam N-9)			12 ×10⁻⁶ cm/s	35 µL/min/mg
